The source of these data is patent US20220348558A1, “INHIBITORS OF ENCEPHALITIC ALPHAVIRUSES” (priority 2019, published 2022).

The subject of experiment [1] is VEEV TC83. The experiment can be described thus: microbe, parasite or virus in culture. Conditions: Venezuelan equine encephalitis virus, Vero 76, 48 h, read-out: VEEV TC83 EC50 nM. Format: cell-based.
Experiment [2] concerns WEEV California. The experiment is described as follows: microbe, parasite or virus in culture. In kind it is cell-based. The settings on record: Western equine encephalitis virus, Vero 76, 48 h, read-out: WEEV California EC50 nM.

As a reminder, the EC50 is the concentration that produces a half-maximal response. For `COc1ccc(-n2c([C@H]3CCCN3)nc3ccc([N+](=O)[O-])cc3c2=O)cc1` [Example 9, (R)-3-(4-methoxyphenyl)-6-nitro-2-(pyrrolidin-2-yl) quinazolin-4 (3H)-one], the EC50 in experiment [1] and in experiment [2] was 1 to 50 nM throughout.

On to `COc1c(F)cc(-n2c([C@H]3CCCN3)nc3c(-c4ccc(C(F)(F)F)nc4)cc(C#N)cc3c2=O)cc1F` [Example 118, (R)-3-(3,5-difluoro-4-methoxyphenyl)-4-oxo-2-(pyrrolidin-2-yl)-8-(6-(trifluoromethyl)pyridin-3-yl)-3,4-dihydroquinazoline-6-carbonitrile], for which the EC50 was in the range of 1 to 50 nM in experiment [1] and 51 to 150 nM in experiment [2].

Take `COc1ccc(-n2c([C@@H]3CCCN3)nc3c(F)cc(C#N)cc3c2=O)cc1` [Example 79, (S)-8-fluoro-3-(4-methoxyphenyl)-4-oxo-2-(pyrrolidin-2-yl)-3,4-dihydroquinazoline-6-carbonitrile]: the EC50 in experiment [1] and in experiment [2] was 501 to 1000 nM each time.

Regarding `COc1ccc(-n2c([C@@H]3CCCN3)nc3c(-c4ccncc4)cc(C#N)cc3c2=O)cc1F` [Example 110, (S)-3-(3-fluoro-4-methoxyphenyl)-4-oxo-8-(pyridin-4-yl)-2-(pyrrolidin-2-yl)-3,4-dihydroquinazoline-6-carbonitrile], the EC50 in experiment [1] and in experiment [2] was 1 to 50 nM throughout.

As to `COc1ccc(-n2c(C3CCCN3)nc3c(-c4ccc(OC)c(OC)c4)cc(C#N)cc3c2=O)cc1F` (stereo not drawn) [Example 152, 8-(3,4-Dimethoxyphenyl)-3-(3-fluoro-4-methoxyphenyl)-4-oxo-2-(pyrrolidin-2-yl)-3,4-dihydroquinazoline-6-carbonitrile], the EC50 in experiment [1] and in experiment [2] was 1 to 50 nM each time.

On to `COc1ccc(-n2c([C@H]3CCCN3)nc3c(-c4cccnc4)cc([N+](=O)[O-])cc3c2=O)cc1F` [Example 81, (R)-3-(3-fluoro-4-methoxyphenyl)-6-nitro-8-(pyridin-3-yl)-2-(pyrrolidin-2-yl) quinazolin-4 (3H)-one], for which the EC50 in experiment [1] and in experiment [2] was 1 to 50 nM each time.

On to `COc1ccc(-n2c([C@H]3CCCN3)nc3c(C4CC4)cc([N+](=O)[O-])cc3c2=O)cc1` [Example 95, (R)-8-cyclopropyl-3-(4-methoxyphenyl)-6-nitro-2-(pyrrolidin-2-yl) quinazolin-4 (3H)-one], for which the EC50 was in the range of 1 to 50 nM in experiment [1] and 51 to 150 nM in experiment [2].

Take `COc1ccc(-n2c([C@H]3Cc4ccccc4N3)nc3c(-c4ccc(C)nc4)cc(C#N)cc3c2=O)cc1F` [Example 128, (R)-3-(3-fluoro-4-methoxyphenyl)-2-(indolin-2-yl)-8-(6-methylpyridin-3-yl)-4-oxo-3,4-dihydroquinazoline-6-carbonitrile]: the EC50 lay in the range of 1 to 50 nM in experiment [1] and 151 to 500 nM in experiment [2].

As for `COc1ccc(-n2c(C3C[C@@H]4CCC[C@@H]4N3)nc3c(-c4ccc(C)nc4)cc(C#N)cc3c2=O)cc1F` (stereo partly drawn) [Example 140, 3-(3-fluoro-4-methoxyphenyl)-8-(6-methylpyridin-3-yl)-2-((3aS,6aS)-octahydrocyclopenta[b]pyrrol-2-yl)-4-oxo-3,4-dihydroquinazoline-6-carbonitrile], the EC50 in experiment [1] and in experiment [2] was 1 to 50 nM each time.

For `COc1ccc(-n2c(C3CCCN3)nc3c(-c4ccc(OC(F)(F)F)cc4)cc(C#N)cc3c2=O)cc1F` (stereo not drawn) [Example 151, 3-(3-Fluoro-4-methoxyphenyl)-4-oxo-2-(pyrrolidin-2-yl)-8-(4-(trifluoromethoxy)phenyl)-3,4-dihydroquinazoline-6-carbonitrile], the 50% effective concentration (EC50) in experiment [1] and in experiment [2] was 1 to 50 nM throughout.

As for `COc1ccc(-n2c([C@H]3CCCN3)nc3ccc(C#N)cc3c2=O)cc1` [Example 14, (R)-3-(4-methoxyphenyl)-4-oxo-2-(pyrrolidin-2-yl)-3,4-dihydroquinazoline-6-carbonitrile], the results for the EC50 in experiment [1] and in experiment [2] were 1 to 50 nM and 51 to 150 nM, respectively.

With `COc1ccc(-n2c(-c3cn(C)cn3)nc3c(-c4ccc(C)nc4)cc(C#N)cc3c2=O)cc1F` [Example 200, 3-(3-fluoro-4-methoxyphenyl)-2-(1-methyl-1H-imidazol-4-yl)-8-(6-methylpyridin-3-yl)-4-oxo-3,4-dihydroquinazoline-6-carbonitrile], the EC50 in experiment [1] and in experiment [2] was greater than 1000 nM each time.

Consider `COc1ccc(-n2c([C@H]3CCCN3)nc3c(-c4ccc(F)nc4)cc(C#N)cc3c2=O)cc1F` [Example 99, (R)-3-(3-fluoro-4-methoxyphenyl)-8-(6-fluoropyridin-3-yl)-4-oxo-2-(pyrrolidin-2-yl)-3,4-dihydroquinazoline-6-carbonitrile], for which the EC50 in experiment [1] and in experiment [2] was 1 to 50 nM throughout.

With `COc1ccc(-n2c(-c3nccn3C)nc3c(-c4ccc(C)nc4)cc(C#N)cc3c2=O)cc1F` [Example 203, 3-(3-fluoro-4-methoxyphenyl)-2-(1-methyl-1H-imidazol-2-yl)-8-(6-methylpyridin-3-yl)-4-oxo-3,4-dihydroquinazoline-6-carbonitrile], the EC50 was in the range of 51 to 150 nM in experiment [1] and 151 to 500 nM in experiment [2].

Turning to `COc1ccc(-n2c([C@@]3(C)CCCN3)nc3c(-c4ccc(C)nc4)cc(C#N)cc3c2=O)cc1F` [Example 141, (R)-3-(3-fluoro-4-methoxyphenyl)-8-(6-methylpyridin-3-yl)-2-(2-methylpyrrolidin-2-yl)-4-oxo-3,4-dihydroquinazoline-6-carbonitrile], the EC50 in experiment [1] and in experiment [2] was 1 to 50 nM in each case.

Regarding `COc1ccc(-n2c([C@H]3CCCN3)nc3c(-c4ccc(C)nc4)cc(C#N)cc3c2=O)cc1F` [Example 102, (R)-3-(3-fluoro-4-methoxyphenyl)-8-(6-methylpyridin-3-yl)-4-oxo-2-(pyrrolidin-2-yl)-3,4-dihydroquinazoline-6-carbonitrile], the EC50 in experiment [1] and in experiment [2] was 1 to 50 nM each time.

In the case of `COc1ccc(-n2c(C3CCCN3)nc3c(-c4ccc(N5CCN(C)CC5)nc4)cc(C#N)cc3c2=O)cc1F` (stereo not drawn) [Example 132, 3-(3-fluoro-4-methoxyphenyl)-8-(6-(4-methylpiperazin-1-yl)pyridin-3-yl)-4-oxo-2-(pyrrolidin-2-yl)-3,4-dihydroquinazoline-6-carbonitrile], the EC50 in experiment [1] and in experiment [2] was 1 to 50 nM each time.

For the compound `COc1ccc(-n2c([C@H]3CCCN3)nc3c(-c4cncnc4)cc(C#N)cc3c2=O)cc1F` [Example 105, (R)-3-(3-fluoro-4-methoxyphenyl)-4-oxo-8-(pyrimidin-5-yl)-2-(pyrrolidin-2-yl)-3,4-dihydroquinazoline-6-carbonitrile], the values for the EC50 in experiment [1] and in experiment [2] were 51 to 150 nM and 151 to 500 nM, respectively.

As to `COc1ccc(-n2c(C3CCCN3)nc3c(-c4ccc(NS(C)(=O)=O)cc4)cc(C#N)cc3c2=O)cc1F` (stereo not drawn) [Example 157, N-(4-(6-Cyano-3-(3-fluoro-4-methoxyphenyl)-4-oxo-2-(pyrrolidin-2-yl)-3,4-dihydroquinazolin-8-yl)phenyl)methanesulfonamide], the EC50 in experiment [1] and in experiment [2] was 51 to 150 nM each time.

On to `CN[C@H](C)c1nc2ccc([N+](=O)[O-])cc2c(=O)n1-c1ccc(OC)cc1` [Example 207, (R)-3-(4-methoxyphenyl)-2-(1-(methylamino)ethyl)-6-nitroquinazolin-4 (3H)-one], for which the figures for the EC50 in experiment [1] and in experiment [2] were 51 to 150 nM and 151 to 500 nM, respectively.

For the compound `COc1ccc(-n2c([C@H]3CCCN3)nc3c(-c4cncnc4)cc([N+](=O)[O-])cc3c2=O)cc1` [Example 87, (R)-3-(4-methoxyphenyl)-6-nitro-8-(pyrimidin-5-yl)-2-(pyrrolidin-2-yl) quinazolin-4 (3H)-one], the EC50 in experiment [1] and in experiment [2] was 1 to 50 nM in each case.

Consider `COc1ccc(-n2c(C3CCCN3)nc3c(-c4ccc(N5CCOCC5)cc4)cc(C#N)cc3c2=O)cc1F` (stereo not drawn) [Example 153, 3-(3-Fluoro-4-methoxyphenyl)-8-(4-morpholinophenyl)-4-oxo-2-(pyrrolidin-2-yl)-3,4-dihydroquinazoline-6-carbonitrile], for which the concentration giving a half-maximal response (EC50) in experiment [1] and in experiment [2] was 1 to 50 nM each time.

Consider `COc1c(F)cc(-n2c(C34CC(CN3)C4)nc3c(-c4ccc(C)nc4)cc(C#N)cc3c2=O)cc1F` [Example 175, 2-(2-azabicyclo[2.1.1]hexan-1-yl)-3-(3,5-difluoro-4-methoxyphenyl)-8-(6-methylpyridin-3-yl)-4-oxo-3,4-dihydroquinazoline-6-carbonitrile], for which the EC50 in experiment [1] fell in the range of 1 to 50 nM; in experiment [2] it was 51 to 150 nM.

Regarding `N#Cc1cc(-c2ccc(C(F)(F)F)nc2)c2nc([C@H]3CCCN3)n(-c3ccc(O)c(F)c3)c(=O)c2c1` [Example 168, (R)-3-(3-fluoro-4-hydroxyphenyl)-4-oxo-2-(pyrrolidin-2-yl)-8-(6-(trifluoromethyl)pyridin-3-yl)-3,4-dihydroquinazoline-6-carbonitrile], the values for the EC50 in experiment [1] and in experiment [2] were 51 to 150 nM and 151 to 500 nM, respectively.

With `COc1ccc(-n2c([C@@H]3CCCN3)nc3c(C)cc([N+](=O)[O-])cc3c2=O)cc1` [Example 56, (S)-3-(4-methoxyphenyl)-8-methyl-6-nitro-2-(pyrrolidin-2-yl) quinazolin-4 (3H)-one], the EC50 in experiment [1] is 1 to 50 nM; in experiment [2], 51 to 150 nM.

Consider `COc1ccc(-n2c([C@@H]3CCCN3)nc3c(C(F)(F)F)cc(C#N)cc3c2=O)cc1F` [Example 77, (S)-3-(3-fluoro-4-methoxyphenyl)-4-oxo-2-(pyrrolidin-2-yl)-8-(trifluoromethyl)-3,4-dihydroquinazoline-6-carbonitrile], for which the EC50 was in the range of 51 to 150 nM in experiment [1] and 1 to 50 nM in experiment [2].

Take `COc1ccc(-n2c([C@H]3CCCN3)nc3c(-c4ccncc4)cc([N+](=O)[O-])cc3c2=O)cc1F` [Example 82, (R)-3-(3-fluoro-4-methoxyphenyl)-6-nitro-8-(pyridin-4-yl)-2-(pyrrolidin-2-yl) quinazolin-4 (3H)-one]: the EC50 in experiment [1] and in experiment [2] was 1 to 50 nM throughout.
